The results in this text go back to ChEMBL document CHEMBL1123972, “Drug-induced modifications of the immune response. 12. 4,5-Dihydro-4-oxo-2-(substituted amino)-3-furancarboxylic acids and derivatives as novel antiallergic agents” (1988).

As usually defined, the inhibition in vivo is the relative decrease from the control value, in per cent. As a reminder, the Inhibition is the drop in the measured response relative to a control, in per cent.

Counter-ions that a name gives are not always drawn.

Common to all, as to type: functional
Assay [1] deals with Rattus norvegicus. Kind of assay: Antiallergic activity of edema in the active anaphylaxis assay at a intraperitoneal dose of 100 mg/kg in rats. Also noted: unit not given here.
The test system of assay [2] is Rattus norvegicus. In words: Antiallergic activity evaluated as percent inhibition at intraperitoneal dose of 100 mg/kg in rats. The settings on record: for inhibition in vivo at 100 mg/kg: Rattus norvegicus, ip.
Assay [3] has as its system Rattus norvegicus. In words: Inhibition of histamine -induced dermal vascular permeability in rats at a intraperitoneal dose of 100 mg/kg 1 hr prior to challenge. To be noted: ip.
The test system of assay [4] is Rattus norvegicus. Kind of assay: Inhibition of serotonin -induced dermal vascular permeability in rats at a intraperitoneal dose of 100 mg/kg 1 hr prior to challenge. The settings on record: ip.
Assay [5] deals with Rattus norvegicus. In words: Inhibition of bradykinin-induced dermal vascular permeability in rats at a intraperitoneal dose of 100 mg/kg 1 hr prior to challenge. To be noted: ip.
In assay [6] the test system is Rattus norvegicus. In words: Antiallergic activity of edema in the active anaphylaxis assay at a peroral dose of 100 mg/kg in rats. To be noted: route oral.
Assay [7] concerns Rattus norvegicus. Kind of assay: Antiallergic activity evaluated as percent inhibition at peroral dose of 100 mg/kg in rats. The settings on record: route oral.
The subject of assay [8] is Rattus norvegicus. Kind of assay: Inhibition of histamine -induced dermal vascular permeability in rats at a peroral dose of 100 mg/kg 1 hr prior to challenge. To be noted: route oral.
For assay [9], the system named is Rattus norvegicus. Kind of assay: Inhibition of serotonin -induced dermal vascular permeability in rats at a peroral dose of 100 mg/kg 1 hr prior to challenge. To be noted: route oral.
The subject of assay [10] is Rattus norvegicus. Kind of assay: Inhibition of bradykinin-induced dermal vascular permeability in rats at a peroral dose of 100 mg/kg 1 hr prior to challenge. The settings on record: route oral.

As for `CC1(C)OC(Nc2ccccc2)=C(C(=O)O)C1=O`, the Activity with Rattus norvegicus [1] came out at 1.95. This compound also returned an inhibition in vivo at 100 mg/kg in the assay with Rattus norvegicus [2] of 44%.
With `O=C1COC(Nc2ccc(Cl)cc2)=C1C(=O)Nc1ccc(Cl)cc1`, the inhibition in vivo at 100 mg/kg in the assay with Rattus norvegicus [3] came out at 15%; with Rattus norvegicus [4] it was 14%; with Rattus norvegicus [5] it was 44%.
On to `O=C1COC(Nc2ccccc2)=C1C(=O)Nc1ccccc1`, for which, in the assay on Rattus norvegicus [1], the Activity was found to be 2.45. The compound further registered an inhibition in vivo at 100 mg/kg in the assay with Rattus norvegicus [2] of 46%.
In turn, `Cn1c(=O)c2nc[nH]c2n(C)c1=O.O` [THEOPHYLLINE] displayed an Activity in the assay with Rattus norvegicus [6] of 3.75. The compound further registered an inhibition in vivo at 100 mg/kg in the assay with Rattus norvegicus [7] of 66%.
With `O=C(O)C1=C(Nc2ccc(Br)cc2)OCC1=O`, the Activity in the assay on Rattus norvegicus [1] was found to be 3.24. Also, the inhibition in vivo at 100 mg/kg in the assay with Rattus norvegicus [2] amounted to 27%; in the assay with Rattus norvegicus [8] it was 45%; with Rattus norvegicus [9], 39%; in the assay on Rattus norvegicus [10], 68%.
For the compound `CCOC(=O)C1=C(Nc2ccc(Cl)cc2)OCC1=O`, the values for the inhibition in vivo at 100 mg/kg in the assay on Rattus norvegicus [8], with Rattus norvegicus [9] and in the assay with Rattus norvegicus [10] were 3.3%, 6.6% and 9.5%, respectively.
With `Cc1ccc(C2CC2NC2=C(C(=O)O)C(=O)CO2)cc1` (stereo unspecified), in the assay with Rattus norvegicus [1], the Activity was 1.58. The inhibition in vivo at 100 mg/kg in the assay with Rattus norvegicus [2] turned out to be 45%; with Rattus norvegicus [3] it was 100%; in the assay with Rattus norvegicus [4] it was 100%; in the assay on Rattus norvegicus [5], 100%.
For `CCOC(=O)C1=C(Nc2cccc(C(F)(F)F)c2)OCC1=O`, the inhibition in vivo at 100 mg/kg in the assay on Rattus norvegicus [8] is 4.1%; in the assay on Rattus norvegicus [9], 9.7%; in the assay on Rattus norvegicus [10], 40%.
In the case of `CCOC(=O)C1=C(NC2CC2c2ccccc2)OCC1=O` (stereo unspecified), the inhibition in vivo at 100 mg/kg came to 35% in the assay with Rattus norvegicus [8], 57% in the assay with Rattus norvegicus [9] and 59% in the assay on Rattus norvegicus [10].
`COc1ccc(NC(=O)C2=C(Nc3ccc(OC)cc3)OCC2=O)cc1`: the inhibition in vivo at 100 mg/kg was determined as 8% with Rattus norvegicus [3], 13% with Rattus norvegicus [4] and 39% with Rattus norvegicus [5].
As for `Cc1ccccc1NC(=O)C1=C(Nc2ccccc2C)OCC1=O`, the inhibition in vivo at 100 mg/kg with Rattus norvegicus [3] stood at 0%; in the assay with Rattus norvegicus [4], 9%; in the assay on Rattus norvegicus [5], 7%.
The compound `CC1OC(Nc2ccccc2)=C(C(=O)O)C1=O` (stereo unspecified) displayed an Activity with Rattus norvegicus [1] of 2. This compound also registered an inhibition in vivo at 100 mg/kg with Rattus norvegicus [2] of 60%.
For the compound `O=C(O)C1=C(Nc2ccc(C(=O)O)cc2)OCC1=O`, the Activity in the assay on Rattus norvegicus [1] is 2. The inhibition in vivo at 100 mg/kg in the assay with Rattus norvegicus [2] turned out to be 52%; with Rattus norvegicus [3] it was 64%; in the assay on Rattus norvegicus [4], 63%; with Rattus norvegicus [5], 64%.
`O=C([O-])C1=C(Nc2ccccc2)OCC1=O.[Na+]` showed an Activity in the assay with Rattus norvegicus [1] of 2.75. This compound had an Inhibition in the assay with Rattus norvegicus [2] of 17%.
In the assay with Rattus norvegicus [1], `CCOC(=O)C1=C(Nc2ccccc2)OC(C)C1=O` (stereo unspecified) gave an Activity of 1.44. Moreover, the inhibition in vivo at 100 mg/kg came out at 61% in the assay on Rattus norvegicus [2], 40% in the assay on Rattus norvegicus [3], 37% in the assay with Rattus norvegicus [4] and 46% in the assay on Rattus norvegicus [5].
Regarding `COc1ccccc1NC(=O)C1=C(Nc2ccccc2OC)OCC1=O`, the inhibition in vivo at 100 mg/kg turned out to be 1% with Rattus norvegicus [3], 18% in the assay on Rattus norvegicus [4] and 39% with Rattus norvegicus [5].
With `O=C(O)C1=C(Nc2ccccc2)OCC1=O`, in the assay on Rattus norvegicus [1], the Activity is reported as 0.47. Besides, the Inhibition with Rattus norvegicus [2] was 81%.
For the compound `CCOC(=O)C1=C(Nc2ccccc2)OC(C)(C)C1=O`, in the assay with Rattus norvegicus [1], the Activity was found to be 7.71. Also, the inhibition in vivo at 100 mg/kg with Rattus norvegicus [2] amounted to 16%.
As to `CCOC(=O)C1=C(NC)OCC1=O`, the inhibition in vivo at 100 mg/kg was 50% in the assay on Rattus norvegicus [3], 38% with Rattus norvegicus [4] and 25% in the assay on Rattus norvegicus [5].
Take `O=C(O)C1=C(Nc2cccc(C(F)(F)F)c2)OCC1=O`: the Activity in the assay with Rattus norvegicus [1] is given as 3.35. Further, the inhibition in vivo at 100 mg/kg in the assay on Rattus norvegicus [2] stood at 45%; in the assay with Rattus norvegicus [8], 26%; in the assay with Rattus norvegicus [9], 40%; in the assay on Rattus norvegicus [10], 54%.
As to `CN1CCC(=C2c3ccccc3C=Cc3ccccc32)CC1` [CYPROHEPTADINE HYDROCHLORIDE], the inhibition in vivo at 100 mg/kg in the assay with Rattus norvegicus [3] turned out to be 93%; in the assay on Rattus norvegicus [4] it was 93%; with Rattus norvegicus [5] it was 23%.
On to `CCOC(=O)C1=C(NC2CC2c2ccc(Cl)cc2)OCC1=O` (stereo unspecified), for which the inhibition in vivo at 100 mg/kg in the assay on Rattus norvegicus [3] stood at 60%; with Rattus norvegicus [4] it was 51%; in the assay on Rattus norvegicus [5], 76%.
In the assay with Rattus norvegicus [1], `O=C(O)C1=C(Nc2cccc([N+](=O)[O-])c2)OCC1=O` had an Activity of 7.29. In addition, the inhibition in vivo at 100 mg/kg in the assay with Rattus norvegicus [2] is 39%; in the assay on Rattus norvegicus [3], 16%; with Rattus norvegicus [4] it was 18%; in the assay with Rattus norvegicus [5], 48%.
In the assay on Rattus norvegicus [1], `O=C([O-])C1=C(NC2CC2c2ccccc2)OCC1=O.[Na+]` (stereo unspecified) came in with an Activity of 3.72. Also, 100 mg/kg produced 22% inhibition in vivo in the assay on Rattus norvegicus [2].
In the assay on Rattus norvegicus [1], `COc1ccccc1NC1=C(C(=O)O)C(=O)CO1` registered an Activity of 3.45. For the same compound, the inhibition in vivo at 100 mg/kg was 45% in the assay with Rattus norvegicus [2], 27% in the assay with Rattus norvegicus [8], 30% in the assay with Rattus norvegicus [9] and 38% in the assay with Rattus norvegicus [10].
Take `CCOC(=O)C1=C(Nc2ccc(C(=O)OCC)cc2)OCC1=O`: the inhibition in vivo at 100 mg/kg with Rattus norvegicus [8] stood at 21%; in the assay with Rattus norvegicus [9], 18%; in the assay with Rattus norvegicus [10] it was 21%.
`O=C(O)C1=C(NC2CC2c2ccc(Cl)cc2)OCC1=O` (stereo unspecified) returned an Activity with Rattus norvegicus [1] of 4.1. Moreover, the inhibition in vivo at 100 mg/kg turned out to be 6% in the assay on Rattus norvegicus [2], 56% in the assay with Rattus norvegicus [3], 54% in the assay with Rattus norvegicus [4] and 71% in the assay with Rattus norvegicus [5].
For `O=C(O)C1=C(Nc2cccc3ccccc23)OCC1=O`, the Activity in the assay on Rattus norvegicus [1] came to 1.2. The inhibition in vivo at 100 mg/kg in the assay on Rattus norvegicus [2] is 64%.
